Measurements: patent US12227747B2, “Composition comprising aptamer as active ingredient for treatment and prevention of degenerative brain disease” (Nexmos Co., LTD, priority 2018, dated 2025)

Legend:
[1] = ITC (Isothermal Titration calorimetry) of the aptamer binding to ascorbic acid; conditions: FIG. 7, read-out: binding affinity between the aptamer and ascorbic acid
[2] = Fluorescence-based microplate assay (OPDA) of ascorbic acid oxidation; assay type: physicochemical
Source text: (§1) FIGS. 4-5 is a diagram showing a fluorescence-based microplate assay that inhibits ascorbic acid oxidation, and FIG. 4 is an experimental result using OPDA, a substance that becomes fluorescent by binding to DHA. […] FIG. 5 is a comparison of the antioxidant activity of remaining ascorbic acid using DCPIP after AptaminC3T31+ascorbic acid and ascorbic acid were left for 8 weeks under the same conditions. AptaminC3T31+ascorbic acid maintained 50% antioxidant activity even after 8 weeks,
The oxidation of ascorbic acid was measured in reverse with detecting the oxidized product dehydroascorbic acid (DHA) with modifying a method described in Vislisel et al. (Vislisel, J. M. Schafer, F. O. and Buettner, G. R. (2007) Analytical biochemistry, 365, 31-39).
Briefly, aptamers were incubated with AA (10.3 μM) at 4× concentration for 30 minutes at room temperature before addition of 25 μM H2O2 (Sigma). Before the addition of OPDA dye (Sigma), the oxidizing agent sample was added and incubated at room temperature for 10 minutes. Immediately after addition of the dye (954.6 μM) sample, and read at excitation 345 nm; emission: 425 nm with a SpectraMax® plate reader (Molecular Devices) for 45 minutes at intervals of 60 seconds until the control converges. […] All fluorescence assays were performed in black 384-well plates (greiner bio-one). […]

[3] = Storage of vitamin C with aptamer at room temperature for 8 weeks, reducing activity by DCPIP; assay type: physicochemical; conditions: FIG. 5
Source text: as §1
The aptamin C of the present invention was maintained at room temperature for 8 weeks and the reducing activity of ascorbic acid was measured using DCPIP (2,6-Dichlorophenolindophenol).

In the case of “AptaminC3T31: DNA aptamer binding vitamin C (ascorbic acid); SEQ ID NO: 1, GTGGAGGCGGTGGCCAGTCTCGCGGTGGCGGC (DNA GTGGAGGCGGTGGCCAGTCTCGCGGTGGCGGC; listed as DNA, chemistry not given here)”, the Kd [1] is reported as 900 nM, the “oxidation of ascorbic acid (DHA detected with OPDA fluorescence)” value ([2]; ascorbic acid treated with hydrogen peroxide, FIG. 4) is reported as “oxidation of ascorbic acid is prevented” and the “ability to protect AA from oxidation” value ([2]; screen of top 20 candidate aptamers from SELEX) is reported as “best effect”. For the same substance, the “increase of shelf life compared to ascorbic acid alone” value [3] was at least 4 times.
